Calls of active or inactive are those of the source. The calls are words filed in the database; no cut-off is given here.
Experiments:
[1] = test system: HCT-116; assay: Induction of cell morphological changes in human HCT-116 cells assessed as cell vacuolization at 0.5 to 5 uM measured after 24 hrs by phase contrast microscopy; type: functional, cell-based; conditions: dose 0.5-5 µM
[2] = test system: HCT-116; assay: Antiproliferative activity against human HCT-116 cells measured after 48 hrs by MTT assay; type: functional, cell-based; conditions: HCT-116, 48 h
[3] = target: Histone deacetylase 1/2/3 (Homo sapiens) (UniProt Q13547+O15379+Q92769); assay: Inhibition of HDAC1/HDAC2/HDAC3 in human HCT-116 cells assessed as increase in accumulation of acetylated H3K9 measured after 24 hrs by Western blot analysis; type: cell-based; conditions: dose 0.1-10 µM, DDE = dose-dependent effect
[4] = test system: HCT-116; assay: Cell cycle arrest in human HCT-116 cells assessed as accumulation of cells at G2/M phase at 1 uM measured after 24 hrs by propidium iodide staining based flow cytometry (reference value: 22.74%); type: functional
[5] = test system: HCT-116; assay: Cell cycle arrest in human HCT-116 cells assessed as down regulation of Bcl-2 expression measured after 24 hrs by Western blot analysis; type: functional, cell-based; conditions: dose 0.1-10 µM, DDE = dose-dependent effect
[6] = test system: HCT-116; assay: Induction of apoptosis in human HCT-116 cells assessed as viable cells at 0.5 uM measured after 24 hrs by Annexin V-FITC/propidium iodide staining based flow cytometry (reference value: 87.3%); type: functional; conditions: read-out: Activity
[7] = Intrinsic clearance in dog liver microsomes assessed per mg protein at 13.8 uM by HPLC analysis; type: ADME, Canis lupus familiaris, Microsome
[8] = test system: HCT-116; assay: Induction of apoptosis in human HCT-116 cells assessed as early apoptotic cells at 0.5 uM measured after 24 hrs by Annexin V-FITC/propidium iodide staining based flow cytometry (reference value: 1.87%); type: functional
[9] = test system: HCT-116; assay: Cell cycle arrest in human HCT-116 cells assessed as accumulation of cells at G0/G1 phase at 10 uM measured after 24 hrs by propidium iodide staining based flow cytometry (reference value: 58.05%); type: functional
[10] = test system: HepG2; assay: cells; type: functional, cell-based; conditions: Homo sapiens, HepG2, 48 h
[11] = test system: HCT-116; assay: Cell cycle arrest in human HCT-116 cells assessed as down regulation of Bcl-2 expression at 5 uM by Western blot analysis; type: functional, cell-based; conditions: time 6-48 hrs, TDE = time-dependent effect
[12] = test system: HCT-116; assay: Cell cycle arrest in human HCT-116 cells assessed as down regulation of cyclin D1 expression at 5 uM by Western blot analysis; type: functional, cell-based; conditions: time 6-48 hrs, TDE = time-dependent effect
[13] = test system: HCT-116; assay: Cell cycle arrest in human HCT-116 cells assessed as increase in accumulation of cells at G0/G1 phase measured after 24 hrs by propidium iodide staining based flow cytometry; type: functional; conditions: dose 0.1-10 µM, DDE = dose-dependent effect
[14] = test system: HCT-116; assay: Induction of apoptosis in human HCT-116 cells assessed as early apoptotic cells at 5 uM measured after 24 hrs by Annexin V-FITC/propidium iodide staining based flow cytometry (reference value: 1.87%); type: functional
[15] = test system: HCT-116; assay: Cell cycle arrest in human HCT-116 cells assessed as accumulation of cells at G2/M phase at 5 uM measured after 24 hrs by propidium iodide staining based flow cytometry (reference value: 22.74%); type: functional
[16] = target: Histone deacetylase 4 (Homo sapiens, UniProt P56524); assay: Inhibition of recombinant human N-terminal GST-fused/C-terminal His-tagged HDAC4 (627 to 1084 residues) expressed in baculovirus infected Sf9 insect cells using fluorogenic HDAC class 2a substrate measured after 30 mins by fluorimetry
Histone deacetylase 4, sequence (P56524 whole entry, the tested form may be a part): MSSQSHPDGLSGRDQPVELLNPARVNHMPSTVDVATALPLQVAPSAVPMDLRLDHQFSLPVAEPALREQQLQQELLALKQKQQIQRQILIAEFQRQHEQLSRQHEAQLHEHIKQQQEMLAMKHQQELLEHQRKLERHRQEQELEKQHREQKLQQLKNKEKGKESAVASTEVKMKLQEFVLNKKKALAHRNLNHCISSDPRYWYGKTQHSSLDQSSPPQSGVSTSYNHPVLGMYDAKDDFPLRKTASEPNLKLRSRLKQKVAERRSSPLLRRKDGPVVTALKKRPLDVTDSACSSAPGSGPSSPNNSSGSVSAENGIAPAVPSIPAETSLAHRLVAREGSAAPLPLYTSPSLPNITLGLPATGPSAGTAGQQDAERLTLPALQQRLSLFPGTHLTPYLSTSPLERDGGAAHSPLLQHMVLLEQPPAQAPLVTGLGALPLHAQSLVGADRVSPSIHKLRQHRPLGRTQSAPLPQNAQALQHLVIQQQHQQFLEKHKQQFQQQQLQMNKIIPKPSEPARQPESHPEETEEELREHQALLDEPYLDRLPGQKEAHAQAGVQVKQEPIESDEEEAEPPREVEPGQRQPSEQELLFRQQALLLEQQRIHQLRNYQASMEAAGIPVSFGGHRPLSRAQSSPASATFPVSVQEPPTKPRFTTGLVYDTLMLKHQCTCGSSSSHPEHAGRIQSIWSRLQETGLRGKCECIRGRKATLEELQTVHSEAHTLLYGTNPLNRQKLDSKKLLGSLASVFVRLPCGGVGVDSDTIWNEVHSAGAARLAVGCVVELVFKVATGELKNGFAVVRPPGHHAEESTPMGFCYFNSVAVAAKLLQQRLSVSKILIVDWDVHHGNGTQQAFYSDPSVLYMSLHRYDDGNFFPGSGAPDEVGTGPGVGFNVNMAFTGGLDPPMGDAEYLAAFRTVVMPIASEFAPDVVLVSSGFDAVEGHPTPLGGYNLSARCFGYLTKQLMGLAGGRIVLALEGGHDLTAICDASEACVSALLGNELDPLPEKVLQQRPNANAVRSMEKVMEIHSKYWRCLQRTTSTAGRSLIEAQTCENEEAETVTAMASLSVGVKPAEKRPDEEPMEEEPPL

[17] = test system: A549; assay: cells; type: functional, cell-based; conditions: Homo sapiens, A549, 48 h
[18] = test system: HCT-116; assay: Induction of apoptosis in human HCT-116 cells assessed as necrotic cells at 5 uM measured after 24 hrs by Annexin V-FITC/propidium iodide staining based flow cytometry (reference value: 7.39%); type: functional
[19] = target: Histone deacetylase (Homo sapiens) (UniProt Q13547+O15379+Q9UBN7+Q92769+Q9UQL6+Q8WUI4+Q9BY41+Q96DB2+P56524+Q9UKV0+Q969S8); assay: Potency index, ratio of SAHA IC50 to test compound IC50 for inhibition of HDAC in human HeLa cell nuclear extracts using color de Lys as substrate

IC50 [2]: 500 nM | inhibition [3]: Dde | CLint [7]: 3.1 µL/min/mg | IC50 [10]: 1290 nM | IC50 [17]: 1650 nM | Ratio IC50 [19]: 4
Compound: CCCCNc1nc(Cl)nc2c1ncn2Cc1ccc(C(=O)Nc2ccccc2N)cc1
Activity [1]: Active | Activity [4]: 15.43% | Activity [5]: Dde | viability at 0.5 µM [6]: 64.3% | Activity [8]: 33.1% | Activity [9]: 73.05% | Activity [11]: Tde | Activity [12]: Tde | Activity [13]: Dde | Activity [14]: 70.6% | Activity [15]: 14.39% | IC50 [16]: > 100000 nM | Activity [18]: 0.902%

Source: ChEMBL document CHEMBL5154702, “Synthesis and biological evaluation of aminobenzamides containing purine moiety as class I histone deacetylases inhibitors” (Bioorg Med Chem, 2022)
